Laboratory results taken from PubChem BioAssay AID1963835 (Molecular Pharmacology Branch, DTP, NCI, 2024).

Tested on: 699152-130-R-J1-PDC complex spheroid viability
Experiment: Anticancer human tumor 699152-130-R-J1-PDC patient-derived pancreatic carcinoma cell line growth inhibition [POLQ]
Details: for IC50: curve of first compound; for viability, T/C: stronger effect = lower value
Outline: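 Complex spheroid viability model combining PDC tumour cells with endothelial (HUVEC) and MSC stromal cells. Novobiocin, ART-558 or RP6685 were tested singly and in combination with standard and investigational anticancer drugs. Each was titrated in half-log steps from near clinical Cmax, or from 10 microM where Cmax was unknown.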

[1] = second compound 0.0316 µM, first compound 0.0316 µM
[2] = second compound 0.0316 µM, first compound 0.1 µM
[3] = second compound 0.0316 µM, first compound 0.316 µM
[4] = second compound 0.0316 µM, first compound 1 µM
[5] = second compound 0.0316 µM, first compound 3.16 µM
[6] = second compound 0.0316 µM, first compound 10 µM
[7] = second compound 0.1 µM, first compound 0.0316 µM
[8] = second compound 0.1 µM, first compound 0.1 µM
[9] = second compound 0.1 µM, first compound 0.316 µM
[10] = second compound 0.1 µM, first compound 1 µM
[11] = second compound 0.1 µM, first compound 3.16 µM
[12] = second compound 0.1 µM, first compound 10 µM
[13] = second compound 0.316 µM, first compound 0.0316 µM
[14] = second compound 0.316 µM, first compound 0.1 µM
[15] = second compound 0.316 µM, first compound 0.316 µM
[16] = second compound 0.316 µM, first compound 1 µM
[17] = second compound 0.316 µM, first compound 3.16 µM
[18] = second compound 0.316 µM, first compound 10 µM
[19] = second compound 1 µM, first compound 0.0316 µM
[20] = second compound 1 µM, first compound 0.1 µM
[21] = second compound 1 µM, first compound 0.316 µM
[22] = second compound 1 µM, first compound 1 µM
[23] = second compound 1 µM, first compound 3.16 µM
[24] = second compound 1 µM, first compound 10 µM
[25] = second compound 3.16 µM, first compound 0.0316 µM
[26] = second compound 3.16 µM, first compound 0.1 µM
[27] = second compound 3.16 µM, first compound 0.316 µM
[28] = second compound 3.16 µM, first compound 1 µM
[29] = second compound 3.16 µM, first compound 3.16 µM
[30] = second compound 3.16 µM, first compound 10 µM
[31] = second compound 10 µM, first compound 0.0316 µM
[32] = second compound 10 µM, first compound 0.1 µM
[33] = second compound 10 µM, first compound 0.316 µM
[34] = second compound 10 µM, first compound 1 µM
[35] = second compound 10 µM, first compound 3.16 µM
[36] = second compound 10 µM, first compound 10 µM
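Further: spheroids exposed to agents for 7 days before viability reading.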
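Wherever viability, T/C is given: percent of DMSO vehicle control viability so 100% = vehicle and 0% = no viable signal.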

C#Cc1c(F)ccc2cc(O)cc(-c3ncc4c(N5CC6CCC(C5)N6)nc(OCC56CCCN5CC(F)C6)nc4c3F)c12 (stereo unspecified) + COC1C(OC(N)=O)C(O)C(Oc2ccc3c(O)c(NC(=O)c4ccc(O)c(CC=C(C)C)c4)c(=O)oc3c2C)OC1(C)C
IC50 (second compound 0.0316 µM): < 31.6 nM | IC50 (second compound 0.1 µM): < 31.6 nM | IC50 (second compound 0.316 µM): < 31.6 nM | IC50 (second compound 1 µM): < 31.6 nM | IC50 (second compound 3.16 µM): < 31.6 nM | IC50 (second compound 10 µM): < 31.6 nM | viability, T/C [1]: 24.1% | viability, T/C [2]: 22.1% | viability, T/C [3]: 15.1% | viability, T/C [4]: 14.3% | viability, T/C [5]: 13.6% | viability, T/C [6]: 14.2% | viability, T/C [7]: 25.4% | viability, T/C [8]: 21.3% | viability, T/C [9]: 17% | viability, T/C [10]: 11.4% | viability, T/C [11]: 12.7% | viability, T/C [12]: 11.7% | viability, T/C [13]: 26.2% | viability, T/C [14]: 18.8% | viability, T/C [15]: 16.5% | viability, T/C [16]: 12.8% | viability, T/C [17]: 13.2% | viability, T/C [18]: 11.3% | viability, T/C [19]: 26.8% | viability, T/C [20]: 22.6% | viability, T/C [21]: 17.7% | viability, T/C [22]: 13.2% | viability, T/C [23]: 11.9% | viability, T/C [24]: 12.4% | viability, T/C [25]: 26.3% | viability, T/C [26]: 19.6% | viability, T/C [27]: 18.8% | viability, T/C [28]: 13.7% | viability, T/C [29]: 12.4% | viability, T/C [30]: 12.2% | viability, T/C [31]: 23.9% | viability, T/C [32]: 22.3% | viability, T/C [33]: 17.2% | viability, T/C [34]: 14.2% | viability, T/C [35]: 13.8% | viability, T/C [36]: 12.7%

C=CC(=O)N1CCN(c2nc(=O)n(-c3c(C)ccnc3C(C)C)c3nc(-c4c(O)cccc4F)c(F)cc23)C(C)C1 (stereo unspecified) + COC1C(OC(N)=O)C(O)C(Oc2ccc3c(O)c(NC(=O)c4ccc(O)c(CC=C(C)C)c4)c(=O)oc3c2C)OC1(C)C
IC50 (second compound 0.0316 µM): > 10000 nM | IC50 (second compound 0.1 µM): > 10000 nM | IC50 (second compound 0.316 µM): > 10000 nM | IC50 (second compound 1 µM): > 10000 nM | IC50 (second compound 3.16 µM): > 10000 nM | IC50 (second compound 10 µM): > 10000 nM | viability, T/C [1]: 110% | viability, T/C [2]: 98% | viability, T/C [3]: 97.7% | viability, T/C [4]: 102% | viability, T/C [5]: 116% | viability, T/C [6]: 100% | viability, T/C [7]: 104% | viability, T/C [8]: 96.3% | viability, T/C [9]: 107% | viability, T/C [10]: 118% | viability, T/C [11]: 126% | viability, T/C [12]: 114% | viability, T/C [13]: 123% | viability, T/C [14]: 108% | viability, T/C [15]: 109% | viability, T/C [16]: 103% | viability, T/C [17]: 122% | viability, T/C [18]: 105% | viability, T/C [19]: 102% | viability, T/C [20]: 108% | viability, T/C [21]: 101% | viability, T/C [22]: 108% | viability, T/C [23]: 129% | viability, T/C [24]: 104% | viability, T/C [25]: 106% | viability, T/C [26]: 92.8% | viability, T/C [27]: 99.8% | viability, T/C [28]: 105% | viability, T/C [29]: 125% | viability, T/C [30]: 114% | viability, T/C [31]: 116% | viability, T/C [32]: 94.7% | viability, T/C [33]: 103% | viability, T/C [34]: 110% | viability, T/C [35]: 117% | viability, T/C [36]: 106%

CC1COCCN1c1cc(C2(O)CC3CCC(C2)O3)c2cnn(-c3ccn[nH]3)c2n1 (stereo unspecified) + COC1C(OC(N)=O)C(O)C(Oc2ccc3c(O)c(NC(=O)c4ccc(O)c(CC=C(C)C)c4)c(=O)oc3c2C)OC1(C)C
IC50 (second compound 0.0316 µM): 1360 nM | IC50 (second compound 0.1 µM): 811 nM | IC50 (second compound 0.316 µM): 1400 nM | IC50 (second compound 1 µM): 1170 nM | IC50 (second compound 3.16 µM): 939 nM | IC50 (second compound 10 µM): 1440 nM | viability, T/C [1]: 94.4% | viability, T/C [2]: 80.1% | viability, T/C [3]: 67.3% | viability, T/C [4]: 51.5% | viability, T/C [5]: 43% | viability, T/C [6]: 34.2% | viability, T/C [7]: 109% | viability, T/C [8]: 79.4% | viability, T/C [9]: 60.9% | viability, T/C [10]: 46.8% | viability, T/C [11]: 41.4% | viability, T/C [12]: 34.2% | viability, T/C [13]: 104% | viability, T/C [14]: 84.8% | viability, T/C [15]: 61% | viability, T/C [16]: 52.1% | viability, T/C [17]: 49% | viability, T/C [18]: 34.5% | viability, T/C [19]: 96.6% | viability, T/C [20]: 80.7% | viability, T/C [21]: 65.3% | viability, T/C [22]: 50.2% | viability, T/C [23]: 43.6% | viability, T/C [24]: 40.1% | viability, T/C [25]: 101% | viability, T/C [26]: 83% | viability, T/C [27]: 65% | viability, T/C [28]: 45.8% | viability, T/C [29]: 45.4% | viability, T/C [30]: 34.9% | viability, T/C [31]: 108% | viability, T/C [32]: 83.4% | viability, T/C [33]: 62.5% | viability, T/C [34]: 55.3% | viability, T/C [35]: 45.6% | viability, T/C [36]: 36.3%
